Measurements reported in patent US20260199231A1, “FLUTICASONE AND VILANTEROL FORMULATION AND INHALER” (KINDEVA DRUG DELIVERY L.P., priority 2018, published 2026).

Tests used:
[1] = Next Generation Impactor (NGI) studies, aerodynamic particle size distribution emitted from MDI; assay type: physicochemical; details: HFA-152a; for FPM (fine particle mass, particle size less than 5 micrometers, per actuation) / ISM (impactor sized mass, Cups 2-7, MOC and filter, per actuation) / MMAD (mass median aerodynamic diameter) / Throat hold up (throat assembly content divided by total ex-actuator content): Example 1 MDI: 0.1744% FF, 0.0698% vilanterol trifenatate, mean of three MDIs; for FPM (fine particle mass, particle size less than 5 micrometers, per actuation) / ISM (impactor sized mass, Cups 2-7, MOC and filter, per actuation) / MMAD (mass median aerodynamic diameter): 30 L/minute; for Throat hold up (throat assembly content divided by total ex-actuator content): Emmace anatomical throat
Method: The aerodynamic particle size distribution emitted from each MDI was evaluated using a Next Generation Impactor Instrument (MSP Corporation, Shoreview, MN). For each test, an MDI was attached to the throat component (Emmace anatomical throat, Emmace Consulting, Lund, Sweden) of the NGI instrument and actuated 6 times into the instrument. Prior to each actuation the MDI was vigorously shaken. Immediately prior to attachment, the MDI was primed by actuating 4 times. Prior to each priming shot the MDI was vigorously shaken. The flow rate through the instrument during testing was regulated at 30 L/minute. The test sample (fluticasone furoate and vilanterol trifenatate) deposited on the valve stem, actuator, throat assembly (Emmace anatomical throat), individual uncoated collection cups 1-7, micro-orifice collector (MOC), and final filter component was collected by rinsing each individual component with a known volume of collection solvent. The recovered samples were then analyzed for sample content using an HPLC assay with reference to a known standard. An HPLC instrument with a UV detector (220 nm at 0 minutes, 240 nm at 5 minutes) and a symmetry shield RP-18, 4.6-150 mm column (25° C. column temp) was used. The mobile phase was 10 mM SDS, 60:40 (v/v) acetonitrile:50 mM NH4OAc, pH 5.5). The injection volume was 50 microliters and the flow rate was 1.0 mL/min.
Throat hold up was determined as the ratio of the sample content from the throat assembly divided by the total ex-actuator content.
Fine particle mass (FPM) was calculated using CITDAS (Copley Inhaler Testing Data Analysis Software, from Copley Scientific, Nottingham, UK) as the sum of sample content with a particle size less than 5 micrometers (um), reported as micrograms per actuation (mcg/act).
Median mass aerodynamic diameter (MMAD) was calculated using CITDAS (Copley Inhaler Testing Data Analysis Software).
Impactor sized mass (ISM) was determined as the sum of the sample content determined for Cups 2-7, the MOC and the filter, reported as micrograms per actuation (mcg/act).

[2] = Delivered dose study (start of unit life, unit spray collection apparatus, HPLC assay); assay type: physicochemical; details: Example 1 MDI: 0.1744% fluticasone furoate, 0.0698% vilanterol trifenatate, 99.7558% HFA-152a; coated 63 microliter valve; 28.3 L/min
Method: The start of unit life delivered dose was determined using standard unit spray collection apparatus (USCA) fitted with a filter. For each determination, an MDI was attached to the USCA using a coupler and actuated a single time. Immediately prior to attachment, the MDI was vigorously shaken. Prior to collection of the test sample, the MDI was primed by actuating four times. Prior to each priming shot the MDI was vigorously shaken. The flow rate through the equipment was regulated to 28.3 L/min+/−0.5 L/min. The test sample deposited in the USCA was collected by rinsing with a known volume of collection solvent. The recovered samples were then analyzed for sample content using an HPLC assay with reference to a known standard. An HPLC instrument with a UV detector (220 nm at 0 minutes, 240 nm at 5 minutes) and a symmetry shield RP18, 150 mm×4.6 mm (3.5 μm) column (temperature 25° C.) was used. The mobile phase was 10 mM SDS (sodium dodecyl sulphate), 60:40 (v/v) acetetonitrile:50 mM NH4OAc (ammonium acetate), pH 5.50. The injection volume was 50 μl and the flow rate was 1.0 mL/min.

[3] = Example 2 MDI: 0.8791 wt. % fluticasone furoate, 0.1758 wt. % vilanterol trifenatate, coated 25 microliter valve
[4] = Example 3 MDI: 0.4396 wt. % fluticasone furoate, 0.0879 wt. % vilanterol trifenatate, 50 microliter valve
[5] = Example 4 MDI: 0.3489 wt. % fluticasone furoate, 0.0698 wt. % vilanterol trifenatate, 63 microliter valve
[6] = Example 5 MDI: 0.2198 wt. % fluticasone furoate, 0.0440 wt. % vilanterol trifenatate, uncoated 100 microliter valve
[7] = Example 6 MDI: 0.4396 wt. % fluticasone furoate, 0.1758 wt. % vilanterol trifenatate, coated 25 microliter valve
[8] = Example 7 MDI: 0.2198 wt. % fluticasone furoate, 0.0879 wt. % vilanterol trifenatate, 50 microliter valve
[9] = Example 8 MDI: 0.1744 wt. % fluticasone furoate, 0.0698 wt. % vilanterol trifenatate, 63 microliter valve
[10] = Example 9 MDI: 0.1099 wt. % fluticasone furoate, 0.0440 wt. % vilanterol trifenatate, uncoated 100 microliter valve

Row | SMILES | FPM (fine particle mass, particle size less than 5 micrometers, per actuation) ([1]; 63 microliter valve) | ISM (impactor sized mass, Cups 2-7, MOC and filter, per actuation) ([1]; 63 microliter valve) | MMAD (mass median aerodynamic diameter) ([1]; 63 microliter valve) | Throat hold up (throat assembly content divided by total ex-actuator content) ([1]; 63 microliter valve) | calculated FPM [1, 3] | calculated MMAD [1, 3] | calculated FPM [1, 4] | calculated MMAD [1, 4] | calculated FPM [1, 5] | calculated MMAD [1, 5] | calculated FPM [1, 6] | calculated MMAD [1, 6] | calculated FPM [1, 7] | calculated MMAD [1, 7] | calculated FPM [1, 8] | calculated MMAD [1, 8] | calculated FPM [1, 9] | calculated MMAD [1, 9] | calculated FPM [1, 10] | calculated MMAD [1, 10] | other results
1 | OCc1cc([C@@H](O)CNCCCCCCOCCOCc2c(Cl)cccc2Cl)ccc1O [V, vilanterol] | 9.2 µg | 10.1 µg | 1.9 um | 61.4% | 13.6 micrograms/actuation | 2.6 micrometers | 8.8 micrograms/actuation | 2.7 micrometers | 6.7 micrograms/actuation | 2.3 micrometers | 5.5 micrograms/actuation | 2.5 micrometers | 11.4 micrograms/actuation | 2.1 micrometers | 7.7 micrograms/actuation | 2.2 micrometers | 5.9 micrograms/actuation | 2.3 micrometers | 4.2 micrograms/actuation | 2.6 micrometers | Start of life dose content uniformity (delivered dose) [2]: 23.1 mcg/actuation
2 | C[C@@H]1C[C@H]2[C@@H]3C[C@H](F)C4=CC(=O)C=C[C@]4(C)[C@@]3(F)[C@@H](O)C[C@]2(C)[C@@]1(OC(=O)c1ccco1)C(=O)SCF [FF, fluticasone furoate] | 21.6 µg | 29.7 µg | 3.3 um | 70.8% | 104.9 micrograms/actuation | 3.5 micrometers | 69.3 micrograms/actuation | 3.4 micrometers | 55.9 micrograms/actuation | 3.3 micrometers | 45.2 micrograms/actuation | 3.3 micrometers | 41.0 micrograms/actuation | 3.1 micrometers | 26.3 micrograms/actuation | 2.9 micrometers | 23.8 micrograms/actuation | 3.0 micrometers | 19.3 micrograms/actuation | 3.2 micrometers | Start of life dose content uniformity (delivered dose) [2]: 90.9 mcg/actuation
